The values that follow come from article PMC5884652, “New antimicrobial peptide kills drug-resistant pathogens without detectable resistance” (Oncotarget, 2018).

Holding throughout (settings): pH (I or II) not given; 10 mM sodium phosphate buffer, 10% LB; 37° C, 24 h; mean of 3 experiments
For experiment [1], the system named is E. coli CCARM1238. Kind of experiment: microbe, parasite or virus in culture. The experiment is classed as cell-based, Escherichia coli. The text has this: (§1) The method for peptide synthesis has been described in detail previously. E. coli ATCC 25922 (LB media), P. aeruginosa ATCC 15692 (NB+0.5% NaCl media), Listeria monocytogenes ATCC 3710 (LB media), Staphylococcus epidermidis ATCC 12228 (LB media), and S. aureus ATCC 29213 (TSB media) were obtained from the American Type Culture Collection (Manassas, VA, USA). Bacillus subtilis KCTC 1998 (LB media), Salmonella typhimurium KCTC 1926 (NB media), and Proteus vulgaris KCTC 2433 (NB media) were obtained from the Korean Collection for Type Cultures (Jeollabuk-do, Korea). E. coli CCARM 1238 was received from the Culture Collection of Antibiotic Resistant Microbes at Seoul Women’s University, Korea. Drug-resistant P. aeruginosa 3543, 3904, 3547, and 4007 and S. aureus 3126, 0027, 5157, 1635, 4761, 5159, 3359, 2122, 1630, 1870, 3511, 5156, and 3518 were resistant strains isolated from patients with otitis media in a Chonnam National University’s hospital.
(§2) The antibacterial activities of AMPs (melittin, clavaspirin, and its analogs) and conventional antibiotic drugs (erythromycin, gentamicin, ampicillin, and piperacidin) were determined using microdilution assays. Bacterial cells were cultured at 37° C in appropriate culture media at pH 5.5 or pH 7.4 until collection during the mid-log phase and suspended in 10 mM sodium phosphate buffer (pH 5.5 or pH 7.4) supplemented with 10% culture medium. Thereafter, 2× serial dilutions of each peptide (0.25–128 μM) or antibiotic (0.25–256 μM) were added to sterile 96-well plates, and aliquots of cell suspension (5 × 10^5 colony forming units (cfu)/mL) were seeded into each well. The samples were then incubated at 37° C for 24 h. At the end of the incubation, the minimum inhibitory concentrations (MICs) of the peptides were determined using a VERSA Max microplate reader (Molecular Devices Co., Sunnyvale, CA, USA) at a wavelength of 600 nm. […] MIC values were calculated as the mean of 3 independent experiments conducted in triplicate.

The subject of experiment [2] is P. aeruginosa ATCC 15692. Type of experiment: cell-based, Pseudomonas aeruginosa.
Text: as §1, with “E. coli ATCC 25922 (LB media), P. aeruginosa ATCC 15692 (NB+0.5% NaCl media), Listeria monocytogenes ATCC 3710 (LB media), Staphylococcus epidermidis ATCC 12228 (LB media), and S. aureus ATCC 29213 (TSB media) were obtained from the American Type Culture Collection (Manassas, VA, USA).” left out
as §2, with “Bacterial cells were cultured at 37° C in appropriate culture media at pH 5.5 or pH 7.4 until collection during the mid-log phase and suspended in 10 mM sodium phosphate buffer (pH 5.5 or pH 7.4) supplemented with 10% culture medium.” left out

Experiment [3] concerns S. aureus 4761. As to the kind of experiment: microbe, parasite or virus in culture. Type of experiment: cell-based, Staphylococcus aureus.
Text: as §1, §2

Experiment [4] relates to S. aureus 5157. As to the kind of experiment: microbe, parasite or virus in culture. The experiment is classed as cell-based, Staphylococcus aureus.
Text: as §1, §2

Experiment [5] has as its system S. aureus 3511. As to the kind of experiment: microbe, parasite or virus in culture. Type of experiment: cell-based, Staphylococcus aureus.
Text: as §1, §2

Experiment [6] relates to S. aureus 2122. As to the kind of experiment: microbe, parasite or virus in culture. Type of experiment: cell-based, Staphylococcus aureus.
Text: as §1, §2

Experiment [7] relates to S. aureus 1635. As to the kind of experiment: microbe, parasite or virus in culture. The experiment is classed as cell-based, Staphylococcus aureus.
Text: as §1, §2

The subject of experiment [8] is S. aureus 3359. Kind of experiment: microbe, parasite or virus in culture. The experiment is classed as cell-based, Staphylococcus aureus.
Text: as §1, §2

In experiment [9] the test system is S. aureus 5159. As to the kind of experiment: microbe, parasite or virus in culture. The experiment is classed as cell-based, Staphylococcus aureus.
Text: as §1, §2

Experiment [10] concerns S. aureus 5156. Kind of experiment: microbe, parasite or virus in culture. The experiment is classed as cell-based, Staphylococcus aureus.
Text: as §1, §2

Experiment [11] deals with S. aureus 1870. As to the kind of experiment: microbe, parasite or virus in culture. Type of experiment: cell-based, Staphylococcus aureus.
Text: as §1, §2

The subject of experiment [12] is S. aureus 0027. Kind of experiment: microbe, parasite or virus in culture. The experiment is classed as cell-based, Staphylococcus aureus.
Text: as §1, §2

In experiment [13] the test system is S. aureus 3126. Kind of experiment: microbe, parasite or virus in culture. The experiment is classed as cell-based, Staphylococcus aureus.
Text: as §1, §2

Experiment [14] relates to S. aureus 1630. Kind of experiment: microbe, parasite or virus in culture. The experiment is classed as cell-based, Staphylococcus aureus.
Text: as §1, §2

Experiment [15] concerns S. aureus 3518. Kind of experiment: microbe, parasite or virus in culture. The experiment is classed as cell-based, Staphylococcus aureus.
Text: as §1, §2

Experiment [16] deals with Bacillus subtilis KCTC 1998. The experiment is classed as cell-based.
Text: as §1, §2

Experiment [17] relates to Staphylococcus epidermidis ATCC 12228. Type of experiment: cell-based.
Text: as §1, §2

In experiment [18] the test system is Listeria monocytogenes ATCC 3710. Type of experiment: cell-based.
Text: as §1, §2

Experiment [19] concerns Salmonella typhimurium KCTC 1926. The experiment is classed as cell-based.
Text: as §1, with “Bacillus subtilis KCTC 1998 (LB media), Salmonella typhimurium KCTC 1926 (NB media), and Proteus vulgaris KCTC 2433 (NB media) were obtained from the Korean Collection for Type Cultures (Jeollabuk-do, Korea).” left out
as §2

Experiment [20] relates to Proteus vulgaris KCTC 2433. The experiment is classed as cell-based.
Text: as §1, with “Bacillus subtilis KCTC 1998 (LB media), Salmonella typhimurium KCTC 1926 (NB media), and Proteus vulgaris KCTC 2433 (NB media) were obtained from the Korean Collection for Type Cultures (Jeollabuk-do, Korea).” left out
as §2

Experiment [21] deals with P. aeruginosa 3547. As to the kind of experiment: microbe, parasite or virus in culture. The experiment is classed as cell-based, Pseudomonas aeruginosa.
Text: as §1, §2

Experiment [22] has as its system P. aeruginosa 3904. As to the kind of experiment: microbe, parasite or virus in culture. Type of experiment: cell-based, Pseudomonas aeruginosa.
Text: as §1, §2

Experiment [23] has as its system P. aeruginosa 4007. As to the kind of experiment: microbe, parasite or virus in culture. Type of experiment: cell-based, Pseudomonas aeruginosa.
Text: as §1, §2

Experiment [24] deals with P. aeruginosa 3543. As to the kind of experiment: microbe, parasite or virus in culture. Type of experiment: cell-based, Pseudomonas aeruginosa.
Text: as §1, §2

Structures are written as SMILES. Values after ≈ are worked out from the molar mass of the structure shown.

Consider `CC[C@H](C)[C@H](NC(=O)CN)C(=O)NCC(=O)N[C@@H](C)C(=O)N[C@H](C(=O)N[C@@H](CC(C)C)C(=O)N[C@@H](CCCCN)C(=O)N[C@H](C(=O)N[C@@H](CC(C)C)C(=O)N[C@H](C(=O)N[C@H](C(=O)NCC(=O)N[C@@H](CC(C)C)C(=O)N1CCC[C@H]1C(=O)N[C@@H](C)C(=O)N[C@@H](CC(C)C)C(=O)N[C@H](C(=O)N[C@@H](CO)C(=O)N[C@@H](Cc1c[nH]c2ccccc12)C(=O)N[C@H](C(=O)N[C@@H](CCCCN)C(=O)N[C@@H](CCCNC(=N)N)C(=O)N[C@@H](CCCCN)C(=O)N[C@@H](CCCNC(=N)N)C(=O)N[C@@H](CCC(N)=O)C(=O)N[C@@H](CCC(N)=O)C(N)=O)[C@@H](C)CC)[C@@H](C)CC)[C@@H](C)O)[C@@H](C)O)C(C)C)C(C)C` [Melittin], for which the MIC is 2 µM (≈ 5.69 µg/mL) in [1]; 4 µM (≈ 11.4 µg/mL) in experiment [3]; 2 µM (≈ 5.69 µg/mL) in experiment [4]; 4 µM (≈ 11.4 µg/mL) in experiment [5]; 4 µM (≈ 11.4 µg/mL) in experiment [6]; 2 µM (≈ 5.69 µg/mL) in [7]. Besides, the MIC in experiment [8] is on record as 4 µM (≈ 11.4 µg/mL); in [9] it was 8 µM (≈ 22.8 µg/mL); in [10], 4 µM (≈ 11.4 µg/mL); in experiment [11], 4 µM (≈ 11.4 µg/mL); in [12], 2 µM (≈ 5.69 µg/mL); in experiment [13], 2 µM (≈ 5.69 µg/mL). In addition, the MIC is 4 µM (≈ 11.4 µg/mL) in [14]; 4 µM (≈ 11.4 µg/mL) in experiment [15]; 2 µM (≈ 5.69 µg/mL) in experiment [21]; 2 µM (≈ 5.69 µg/mL) in [22]; 2 µM (≈ 5.69 µg/mL) in experiment [23]; 2 µM (≈ 5.69 µg/mL) in [24]. Moreover, in experiment [2], the “MIC, P. aeruginosa” value is 2 µM (≈ 5.69 µg/mL). In [16], the “MIC, B. subtilis” value turned out to be 2 µM (≈ 5.69 µg/mL). Also, in [17], the “MIC, S. epidermidis” value was found to be 2 µM (≈ 5.69 µg/mL). The “MIC, L. monocytogenes” value in [18] was determined as 2 µM (≈ 5.69 µg/mL). The “MIC, S. typhimurium” value in experiment [19] was determined as 2 µM (≈ 5.69 µg/mL). For the same compound, in experiment [20], the “MIC, P. vulgaris” value is 2 µM (≈ 5.69 µg/mL).
